In this experiment the target is recombinant DYRK1A kinase (Homo sapiens, UniProt Q13627). Nature of the experiment: DYRK1A kinase assay (Ser/Thr 18 peptide Z-lyte FRET). The format is biochemical. The conditions noted are these: DYRK1A kinase activity; 15 μM ATP, 4 μM Ser/Thr peptide 18, one hour at room temperature. Put shortly:
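Recombinant DYRK1A at 0.25 μg/mL was incubated 1 h at room temperature with 15 μM ATP, 4 μM Ser/Thr 18 peptide and compound, in duplicate, 11-point series from 10 μM. Phosphorylation was read by Z-lyte FRET after 1 h protease development, as the coumarin/fluorescein emission ratio converted to % phosphorylation. IC50 by non-linear regression.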

Data on 36 compounds can be found in patent US20230192686A1, “1H-PYRROLO[2,3-B]PYRIDINES AND PREPARATION AND USES THEREOF” (BioSplice Therapeutics, Inc., priority 2021, published 2023).

Take `CN1CCN(c2ncnc3ccc(-c4c[nH]c5ncc(-c6cccnc6)cc45)cc23)CC1` [Compound 1198, 4-(4-Methylpiperazin-1-yl)-6-(5-(pyridin-3-yl)-1H-pyrrolo[2,3-b]pyridin-3-yl)quinazoline]: the EC50 is 3 nM.
As for `Cc1ncccc1-c1cnc2[nH]cc(-c3cc(F)c4nc(C)n(C(C)C)c4c3)c2c1` [Compound 1207, 4-Fluoro-1-isopropyl-2-methyl-6-(5-(2-methylpyridin-3-yl)-1H-pyrrolo[2,3-b]pyridin-3-yl)-1H-benzo[d]imidazole], the figure is 2 nM; as for `Cc1ccncc1-c1cnc2[nH]cc(-c3cc(F)c4nc(C)n(C(C)C)c4c3)c2c1` [Compound 1249, 4-Fluoro-1-isopropyl-2-methyl-6-(5-(4-methylpyridin-3-yl)-1H-pyrrolo[2,3-b]pyridin-3-yl)-1H-benzo[d]imidazole], 2 nM; as for `Cc1ccnc(C)c1-c1cnc2[nH]cc(-c3cc(F)c4nc(C)n(C(C)C)c4c3)c2c1` [Compound 1291, 6-(5-(2,4-Dimethylpyridin-3-yl)-1H-pyrrolo[2,3-b]pyridin-3-yl)-4-fluoro-1-isopropyl-2-methyl-1H-benzo[d]imidazole], 7 nM.
As for `Cc1nc2c(F)cc(-c3c[nH]c4ncc(-c5ccc(N6CCN(C)CC6)nc5)cc34)cc2n1C(C)C` [Compound 1333, 4-Fluoro-1-isopropyl-2-methyl-6-(5-(6-(4-methylpiperazin-1-yl)pyridin-3-yl)-1H-pyrrolo[2,3-b]pyridin-3-yl)-1H-benzo[d]imidazole], the figure is 1 nM; as for `CN1CCN(c2ccc(-c3cnc4[nH]cc(-c5ccc6ncccc6c5)c4c3)cn2)CC1` [Compound 1362, 6-(5-(6-(4-Methylpiperazin-1-yl)pyridin-3-yl)-1H-pyrrolo[2,3-b]pyridin-3-yl)quinoline], 1 nM; as for `CN1CCN(c2cc(-c3cnc4[nH]cc(-c5cc6ccncc6s5)c4c3)ccn2)CC1` [Compound 1370, 2-(5-(2-(4-Methylpiperazin-1-yl)pyridin-4-yl)-1H-pyrrolo[2,3-b]pyridin-3-yl)thieno[2,3-c]pyridine], 6 nM.
Next, `CN1CCN(c2cc(-c3cnc4[nH]cc(-c5ccc6nccn6c5)c4c3)ccn2)CC1` [Compound 1372, 6-(5-(2-(4-Methylpiperazin-1-yl)pyridin-4-yl)-1H-pyrrolo[2,3-b]pyridin-3-yl)imidazo[1,2-a]pyridine]: 1 nM; `Cc1nc2c(F)cc(-c3c[nH]c4ncc(-c5ccnc(N6CCN(C)CC6)c5)cc34)cc2n1C(C)C` [Compound 1375, 4-Fluoro-1-isopropyl-2-methyl-6-(5-(2-(4-methylpiperazin-1-yl)pyridin-4-yl)-1H-pyrrolo[2,3-b]pyridin-3-yl)-1H-benzo[d]imidazole]: 2 nM; `CN1CCN(c2cc(-c3cnc4[nH]cc(-c5ccn6ncc(-c7cnn(C)c7)c6c5)c4c3)ccn2)CC1` [Compound 1384, 3-(3-(1-methyl-1H-pyrazol-4-yl)pyrazolo[1,5-a]pyridin-5-yl)-5-(2-(4-methylpiperazin-1-yl)pyridin-4-yl)-1H-pyrrolo[2,3-b]pyridine]: 1 nM.
On to `CN1CCN(c2cc(-c3cnc4[nH]cc(-c5ccc6c(c5)C5(CCCCC5)NC6=O)c4c3)ccn2)CC1` [Compound 1398, 6′-(5-(2-(4-Methylpiperazin-1-yl)pyridin-4-yl)-1H-pyrrolo[2,3-b]pyridin-3-yl)spiro[cyclohexane-1,1′-isoindolin]-3′-one], for which the half-maximal effective concentration (EC50) worked out at 4 nM.
Next, `CN1CCN(c2cc(-c3cnc4[nH]cc(-c5ccc6ncccc6c5)c4c3)ccn2)CC1` [Compound 1404, 6-(5-(2-(4-Methylpiperazin-1-yl)pyridin-4-yl)-1H-pyrrolo[2,3-b]pyridin-3-yl)quinoline]: 1 nM; `Clc1ccc2c(-c3ccc4ncccc4c3)c[nH]c2n1` [Compound 1446, 6-(6-Chloro-1H-pyrrolo[2,3-b]pyridin-3-yl)quinoline]: 11 nM; `Cc1ccc2c(-c3cc(F)c4nc(C)n(C(C)C)c4c3)c[nH]c2n1` [Compound 1459, 4-Fluoro-1-isopropyl-2-methyl-6-(6-methyl-1H-pyrrolo[2,3-b]pyridin-3-yl)-1H-benzo[d]imidazole]: 4 nM.
As for `Cc1ccc2c(-c3ccc4c(c3)C(C)(C)NC4=O)c[nH]c2n1` [Compound 1481, 3,3-Dimethyl-5-(6-methyl-1H-pyrrolo[2,3-b]pyridin-3-yl)isoindolin-1-one], the figure is 57 nM; as for `Cn1cc2cc(-c3c[nH]c4nc(C5CC5)ccc34)ccc2n1` [Compound 1495, 5-(6-Cyclopropyl-1H-pyrrolo[2,3-b]pyridin-3-yl)-2-methyl-2H-indazole], 105 nM; as for `O=C(NCC(F)F)c1cnc2ccc(-c3c[nH]c4nc(C5CC5)ccc34)cn12` [Compound 1499, 6-(6-Cyclopropyl-1H-pyrrolo[2,3-b]pyridin-3-yl)-N-(2,2-difluoroethyl) imidazo[1,2-a]pyridine-3-carboxamide], 1 nM.
As for `c1cn2cc(-c3c[nH]c4nc(C5CC5)ccc34)cnc2n1` [Compound 1500, 6-(6-Cyclopropyl-1H-pyrrolo[2,3-b]pyridin-3-yl)imidazo[1,2-a] pyrimidine], the figure is 5 nM; as for `c1nc2ccc(-c3c[nH]c4nc(C5CC5)ccc34)cn2n1` [Compound 1505, 6-(6-Cyclopropyl-1H-pyrrolo[2,3-b]pyridin-3-yl)-[1,2,4]triazolo[1,5-a] pyridine], 100 nM; as for `Cn1nnc2ccc(-c3c[nH]c4nc(C5CC5)ccc34)cc21` [Compound 1507, 6-(6-Cyclopropyl-1H-pyrrolo[2,3-b]pyridin-3-yl)-1-methyl-1H-benzo[d][1,2,3]triazole], 38 nM.
On to `CN1CCN(C(=O)c2cnn3ccc(-c4c[nH]c5nc(C6CC6)ccc45)cc23)CC1` [Compound 1517, (5-(6-Cyclopropyl-1H-pyrrolo[2,3-b]pyridin-3-yl)pyrazolo[1,5-a]pyridin-3-yl)(4-methylpiperazin-1-yl)methanone], for which the EC50 came to 66 nM.
On to `COc1ncnc2ccc(-c3c[nH]c4nc(C5CC5)ccc34)cc12` [Compound 1533, 6-(6-Cyclopropyl-1H-pyrrolo[2,3-b]pyridin-3-yl)-4-methoxyquinazoline], for which the 50% effective concentration (EC50) stood at 229 nM.
As for `CN1CCN(c2ncnc3ccc(-c4c[nH]c5nc(C6CC6)ccc45)cc23)CC1` [Compound 1534, 6-(6-Cyclopropyl-1H-pyrrolo[2,3-b]pyridin-3-yl)-4-(4-methylpiperazin-1-yl)quinazoline], the figure is 12 nM; as for `Cc1nc2c(F)cc(-c3c[nH]c4nc(C5CCC5)ccc34)cc2n1C(C)C` [Compound 1543, 6-(6-Cyclobutyl-1H-pyrrolo[2,3-b]pyridin-3-yl)-4-fluoro-1-isopropyl-2-methyl-1H-benzo[d]imidazole], 43 nM; as for `Cc1nc2cnc(-c3c[nH]c4nc(C5CCC5)ccc34)cc2n1C(C)C` [Compound 1546, 6-(6-Cyclobutyl-1H-pyrrolo[2,3-b]pyridin-3-yl)-1-isopropyl-2-methyl-1H-imidazo[4,5-c]pyridine], 2050 nM.
In the case of `c1nc2ccc(-c3c[nH]c4nc(C5CCC5)ccc34)cn2n1` [Compound 1547, 6-(6-Cyclobutyl-1H-pyrrolo[2,3-b]pyridin-3-yl)-[1,2,4]triazolo[1,5-a] pyridine], the EC50 was 121 nM.
Next, `O=C(NCC(F)F)c1cnn2ccc(-c3c[nH]c4nc(C5CCC5)ccc34)cc12` [Compound 1554, 5-(6-Cyclobutyl-1H-pyrrolo[2,3-b]pyridin-3-yl)-N-(2,2-difluoroethyl) pyrazolo[1,5-a]pyridine-3-carboxamide]: 8 nM; `CN1CCC(NC(=O)c2cnn3ccc(-c4c[nH]c5nc(C6CCC6)ccc45)cc23)CC1` [Compound 1556, 5-(6-Cyclobutyl-1H-pyrrolo[2,3-b]pyridin-3-yl)-N-(1-methylpiperidin-4-yl)pyrazolo[1,5-a]pyridine-3-carboxamide]: 5 nM; `O=C(c1cnn2ccc(-c3c[nH]c4nc(C5CCC5)ccc34)cc12)N1CCCCC1` [Compound 1558, (5-(6-Cyclobutyl-1H-pyrrolo[2,3-b]pyridin-3-yl)pyrazolo[1,5-a]pyridin-3-yl)(piperidin-1-yl)methanone]: 291 nM.
As for `O=C1NCCOc2cc(-c3c[nH]c4nc(C5CCC5)ccc34)ccc21` [Compound 1571, 8-(6-Cyclobutyl-1H-pyrrolo[2,3-b]pyridin-3-yl)-3,4-dihydrobenzo[f] [1,4]oxazepin-5(2H)-one], the figure is 50 nM; as for `CN1CCC(Oc2ncnc3ccc(-c4c[nH]c5nc(C6CCC6)ccc45)cc23)CC1` [Compound 1577, 6-(6-Cyclobutyl-1H-pyrrolo[2,3-b]pyridin-3-yl)-4-((1-methylpiperidin-4-yl)oxy)quinazoline], 214 nM.
Next, `COc1ccc2c(-c3ccc4nccn4c3)c[nH]c2n1` [Compound 1666, 6-(6-Methoxy-1H-pyrrolo[2,3-b]pyridin-3-yl)imidazo[1,2-a]pyridine]: 18 nM.
As to `COc1ccc2c(-c3ccc4ncnn4c3)c[nH]c2n1` [Compound 1673, 6-(6-Methoxy-1H-pyrrolo[2,3-b]pyridin-3-yl)-[1,2,4]triazolo[1,5-a] pyridine], the half-maximal effective concentration (EC50) worked out at 65 nM.
Next, `COc1ccc2c(-c3ccc4ncccc4c3)c[nH]c2n1` [Compound 1698, 6-(6-Methoxy-1H-pyrrolo[2,3-b]pyridin-3-yl)quinoline]: 7 nM.
Next, `CCOc1ccc2c(-c3ccc4ncnn4c3)c[nH]c2n1` [Compound 1757, 6-(6-Ethoxy-1H-pyrrolo[2,3-b]pyridin-3-yl)-[1,2,4]triazolo[1,5-a] pyridine]: 144 nM.
Next, `Cc1nc2c(F)cc(-c3c[nH]c4nc(CO)ccc34)cc2n1C(C)C` [Compound 1795, (3-(4-Fluoro-1-isopropyl-2-methyl-1H-benzo[d]imidazol-6-yl)-1H-pyrrolo[2,3-b]pyridin-6-yl)methanol]: 8 nM.
